In patent publication US20080004253A1, “Thiazolopyrimidine modulators of TRPV1” (priority 2006, published 2008):

Key:
human TRPV1 = molecular target: T1, human TRPV1 (Homo sapiens, UniProt Q8NER1); assay: Functional assay: block of capsaicin-induced Ca2+ influx, human assay (hTRPV1/HEK293, FLIPR); type: cell-based; details: hTRPV1/HEK293 cells, 150 nM capsaicin challenge, Fluo-3 fluorescence; mean; > value = solubility limit in assay medium
T1 construct: expressed in transfected cells; host or cells: HEK293 (hTRPV1/HEK293), zeocin selection
Method in brief: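 HEK293 cells stably expressing human TRPV1, fluo3-loaded, preincubated 30 min with compound (serial 3-fold dilutions from 10 μM, duplicate) in 20 μM Ca2+ buffer. Capsaicin response taken as fluo3 fluorescence change before vs 100 s after agonist; IC50 by non-linear regression, mean values; free base or TFA salt.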

rat TRPV1 = molecular target: T2, rat TRPV1 (Rattus norvegicus, UniProt O35433); assay: Functional assay: block of capsaicin-induced Ca2+ influx, rat assay (rTRPV1/HEK293, FLIPR); type: cell-based; details: rTRPV1/HEK293 cells, capsaicin challenge, Fluo-3 fluorescence; mean; > value = solubility limit in assay medium
T2 construct: expressed in transfected cells; host or cells: HEK293 (rTRPV1/HEK293), geneticin selection
Method in brief: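 HEK293 cells expressing rat TRPV1, loaded with fluo3 and preincubated 30 min with compound in 20 μM Ca2+ buffer before capsaicin challenge. Block read as fluo3 fluorescence change over 100 s after agonist, 3-fold series from 10 μM in duplicate. IC50 by non-linear regression, mean values.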

T2 sequence (O35433 whole entry): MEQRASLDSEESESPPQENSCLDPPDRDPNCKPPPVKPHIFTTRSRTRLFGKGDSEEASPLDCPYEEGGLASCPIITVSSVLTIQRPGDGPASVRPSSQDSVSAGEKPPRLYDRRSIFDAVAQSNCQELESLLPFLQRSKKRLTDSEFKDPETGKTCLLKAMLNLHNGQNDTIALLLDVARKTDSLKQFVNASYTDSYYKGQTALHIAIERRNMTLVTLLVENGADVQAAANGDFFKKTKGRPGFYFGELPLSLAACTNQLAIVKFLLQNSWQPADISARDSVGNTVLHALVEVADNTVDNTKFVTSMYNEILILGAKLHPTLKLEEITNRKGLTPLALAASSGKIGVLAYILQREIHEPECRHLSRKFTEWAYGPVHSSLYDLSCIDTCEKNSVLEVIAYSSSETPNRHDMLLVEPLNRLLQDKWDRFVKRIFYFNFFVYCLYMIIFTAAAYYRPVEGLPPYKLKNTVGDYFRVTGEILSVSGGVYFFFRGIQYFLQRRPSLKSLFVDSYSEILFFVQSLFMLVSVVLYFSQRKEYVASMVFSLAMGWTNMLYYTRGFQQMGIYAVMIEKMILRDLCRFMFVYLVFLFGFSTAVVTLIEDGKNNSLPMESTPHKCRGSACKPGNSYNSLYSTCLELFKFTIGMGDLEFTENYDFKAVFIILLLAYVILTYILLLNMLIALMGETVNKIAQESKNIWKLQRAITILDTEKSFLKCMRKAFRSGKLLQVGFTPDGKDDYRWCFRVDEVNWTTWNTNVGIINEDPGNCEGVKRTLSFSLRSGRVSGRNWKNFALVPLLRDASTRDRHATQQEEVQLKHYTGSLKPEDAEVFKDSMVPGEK
T1 sequence (Q8NER1 whole entry): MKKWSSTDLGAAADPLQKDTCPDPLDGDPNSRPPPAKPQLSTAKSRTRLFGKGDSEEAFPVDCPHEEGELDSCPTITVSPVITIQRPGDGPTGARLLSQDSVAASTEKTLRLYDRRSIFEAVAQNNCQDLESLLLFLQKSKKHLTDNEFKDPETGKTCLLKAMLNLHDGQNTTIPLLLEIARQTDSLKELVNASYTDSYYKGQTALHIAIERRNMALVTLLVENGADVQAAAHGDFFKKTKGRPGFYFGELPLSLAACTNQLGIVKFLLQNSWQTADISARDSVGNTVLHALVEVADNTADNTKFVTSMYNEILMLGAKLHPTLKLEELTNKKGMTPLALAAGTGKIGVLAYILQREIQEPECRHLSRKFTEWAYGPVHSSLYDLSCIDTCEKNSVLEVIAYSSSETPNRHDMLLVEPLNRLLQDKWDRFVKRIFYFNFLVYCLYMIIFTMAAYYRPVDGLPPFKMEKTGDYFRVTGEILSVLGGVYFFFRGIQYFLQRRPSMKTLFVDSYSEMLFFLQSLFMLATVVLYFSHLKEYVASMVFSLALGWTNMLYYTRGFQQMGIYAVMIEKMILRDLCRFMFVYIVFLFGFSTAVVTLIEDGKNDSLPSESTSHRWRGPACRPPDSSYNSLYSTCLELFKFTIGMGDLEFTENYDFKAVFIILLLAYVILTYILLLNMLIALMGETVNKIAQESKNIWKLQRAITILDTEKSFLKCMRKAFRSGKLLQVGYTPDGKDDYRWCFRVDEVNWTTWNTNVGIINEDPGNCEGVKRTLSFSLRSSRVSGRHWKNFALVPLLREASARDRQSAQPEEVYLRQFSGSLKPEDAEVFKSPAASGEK

Row | SMILES | IC50 (human TRPV1) | IC50 (rat TRPV1)
1 | Cc1cccc(C)c1Nc1nc2c(Nc3ccc(Cl)cc3)ncnc2s1 [Example 132, N^7-(4-Chloro-phenyl)-N^2-(2,6-dimethyl-phenyl)-thiazolo[5,4-d]pyrimidine-2,7-diamine] | 172 nM | 73 nM
2 | Cc1nc(Nc2ccc(C)c(F)c2)c2nc(Nc3c(C)cccc3C)sc2n1 [Example 133, N^2-(2,6-Dimethyl-phenyl)-N^7-(3-fluoro-4-methyl-phenyl)-5-methyl-thiazolo[5,4-d]pyrimidine-2,7-diamine] | 175 nM | 107 nM
3 | O=S(=O)(c1ccc(Nc2ncnc3sc(Nc4c(Cl)cccc4Cl)nc23)cc1)N1CCNCC1 [Example 134, N^2-(2,6-Dichloro-phenyl)-N^7-[4-(piperazine-1-sulfonyl)-phenyl]-thiazolo[5,4-d]pyrimidine-2,7-diamine] | 202 nM | 78 nM
4 | Cc1nc(Nc2ccc(SC(F)(F)F)c(Cl)c2)c2nc(Nc3c(Cl)cccc3Cl)sc2n1 [Example 135, N^7-(3-Chloro-4-trifluoromethylsulfanyl-phenyl)-N^2-(2,6-dichloro-phenyl)-5-methyl-thiazolo[5,4-d]pyrimidine-2,7-diamine] | 203 nM | 112 nM
5 | Cc1cccc(C)c1Nc1nc2c(Nc3ccc(I)cc3)ncnc2s1 [Example 137, N^2-(2,6-Dimethyl-phenyl)-N^7-(4-iodo-phenyl)-thiazolo[5,4-d]pyrimidine-2,7-diamine] | 225 nM | 48 nM
6 | Cc1ccc(Nc2nc(C)nc3sc(Nc4c(C)cccc4C)nc23)cc1 [Example 138, N^2-(2,6-Dimethyl-phenyl)-5-methyl-N^7-p-tolyl-thiazolo[5,4-d]pyrimidine-2,7-diamine] | 271 nM | 128 nM
7 | Cc1nc(Nc2ccc3c(c2)N(C)CCC3)c2nc(Nc3c(Cl)cccc3Cl)sc2n1 [Example 139, N^2-(2,6-Dichloro-phenyl)-5-methyl-N^7-(1-methyl-1,2,3,4-tetrahydro-quinolin-7-yl)-thiazolo[5,4-d]pyrimidine-2,7-diamine] | 280 nM | 78 nM
8 | Cc1nc(Nc2ccccc2)c2nc(Nc3c(C)cccc3C)sc2n1 [Example 141, N^2-(2,6-Dimethyl-phenyl)-5-methyl-N^7-phenyl-thiazolo[5,4-d]pyrimidine-2,7-diamine] | 350 nM | 223 nM
9 | Cc1cccc(C)c1Nc1nc2c(Nc3ccc(C#N)c(Cl)c3)ncnc2s1 [Example 142, 2-Chloro-4-[2-(2,6-dimethyl-phenylamino)-thiazolo[5,4-d]pyrimidin-7-ylamino]-benzonitrile] | 394 nM | 231 nM
10 | Cc1cccc(C)c1Nc1nc2c(Nc3ccc(F)cc3)ncnc2s1 [Example 144, N^2-(2,6-Dimethyl-phenyl)-N^7-(4-fluoro-phenyl)-thiazolo[5,4-d]pyrimidine-2,7-diamine] | 431 nM | 221 nM
11 | Cc1cccc(C)c1Nc1nc2c(Nc3ccc(C(=O)N(C)C)cc3)ncnc2s1 [Example 145, 4-[2-(2,6-Dimethyl-phenylamino)-thiazolo[5,4-d]pyrimidin-7-ylamino]-N,N-dimethyl-benzamide] | 452 nM | 442 nM
12 | Cc1cccc(C)c1Nc1nc2c(Nc3ccccc3)ncnc2s1 [Example 147, N^2-(2,6-Dimethyl-phenyl)-N^7-phenyl-thiazolo[5,4-d]pyrimidine-2,7-diamine] | 723 nM | 354 nM
13 | Cc1ccc(Nc2ncnc3sc(Nc4c(C)cccc4C)nc23)cc1F [Example 148, N^2-(2,6-Dimethyl-phenyl)-N^7-(3-fluoro-4-methyl-phenyl)-thiazolo[5,4-d]pyrimidine-2,7-diamine] | 735 nM | 126 nM
14 | Cc1cccc(C)c1Nc1nc2c(Nc3ccc(C#N)c(C(F)(F)F)c3)ncnc2s1 [Example 149, 4-[2-(2,6-Dimethyl-phenylamino)-thiazolo[5,4-d]pyrimidin-7-ylamino]-2-trifluoromethyl-benzonitrile] | 737 nM | 257 nM
15 | Cc1cccc(C)c1Nc1nc2c(Nc3ccc4c(c3)OCCO4)ncnc2s1 [Example 150, N^7-(2,3-Dihydro-benzo[1,4]dioxin-6-yl)-N^2-(2,6-dimethyl-phenyl)-thiazolo[5,4-d]pyrimidine-2,7-diamine] | 937 nM | 204 nM
16 | Cc1cccc(C)c1Nc1nc2c(Nc3ccc(S(=O)(=O)N4CCNCC4)cc3)ncnc2s1 [Example 151, N^2-(2,6-Dimethyl-phenyl)-N^7-[4-(Piperazine-1-sulfonyl)-phenyl]-thiazolo[5,4-d]pyrimidine-2,7-diamine] | 1220 nM | 349 nM

Row | SMILES | IC50 (human TRPV1) | IC50 (rat TRPV1)
17 | Cc1nc(Nc2ccc(N(C)S(C)(=O)=O)cc2)c2nc(Nc3c(Cl)cccc3Cl)sc2n1 [Example 152, N-{4-[2-(2,6-Dichloro-phenylamino)-5-methyl-thiazolo[5,4-d]pyrimidin-7-ylamino]-phenyl}-N-methyl-methanesulfonamide] | 1220 nM | 205 nM
18 | CN1CCN(CCCNc2nc(Nc3ccc(C(F)(F)F)cc3)c3nc(Nc4c(Cl)cccc4Cl)sc3n2)CC1 [Example 153, N^2-(2,6-Dichloro-phenyl)-N^5-[3-(4-methyl-piperazin-1-yl)-propyl]-N^7-(4-trifluoromethyl-phenyl)-thiazolo[5,4-d]pyrimidine-2,5,7-diamine] | 1420 nM | 440 nM
19 | Cc1nc(Nc2ccc(C(=O)N(C)C)cc2)c2nc(Nc3c(Cl)cccc3Cl)sc2n1 [Example 157, 4-[2-(2,6-Dichloro-phenylamino)-5-methyl-thiazolo[5,4-d]pyrimidin-7-ylamino]-N,N-dimethyl-benzamide] | 1920 nM | 1210 nM
20 | Cc1ccc(Nc2ncnc3sc(Nc4c(C)cccc4C)nc23)c(O)c1 [Example 158, 2-[2-(2,6-Dimethyl-phenylamino)-thiazolo[5,4-d]pyrimidin-7-ylamino]-5-methyl-phenol] | 1970 nM | 313 nM
21 | Cc1cc(C(F)(F)F)ccc1Nc1ncnc2sc(Nc3c(C)cccc3C)nc12 [Example 159, N^2-(2,6-Dimethyl-phenyl)-N^7-(2-methyl-4-trifluoromethyl-phenyl)-thiazolo[5,4-d]pyrimidine-2,7-diamine] | > 2220 nM | 1460 nM
22 | Cc1ccc(Nc2ncnc3sc(Nc4c(C)cccc4C)nc23)cc1O [Example 160, 5-[2-(2,6-Dimethyl-phenylamino)-thiazolo[5,4-d]pyrimidin-7-ylamino]-2-methyl-phenol] | 2990 nM | > 6670 nM
23 | Cc1cccc(C)c1Nc1nc2c(Nc3ccc(N(C)S(C)(=O)=O)cc3)ncnc2s1 [Example 161, N-{4-[2-(2,6-Dimethyl-phenylamino)-thiazolo[5,4-d]pyrimidin-7-ylamino]-phenyl}-N-methyl-methanesulfonamide] | 3780 nM | 2290 nM
24 | FC(F)(F)c1ccc(Nc2nc(N3CCNCC3)nc3sc(Nc4c(Cl)cccc4Cl)nc23)cc1Cl [Example 162, N^7-(3-Chloro-4-trifluoromethyl-phenyl)-N^2-(2,6-dichloro-phenyl)-5-piperazin-1-yl-thiazolo[5,4-d]pyrimidine-2,7-diamine] | 4280 nM | 3080 nM
25 | FC(F)(F)c1ccc(Nc2nc(N3CCNCC3)nc3sc(Nc4c(Cl)cccc4Cl)nc23)cc1 [Example 163, N^2-(2,6-Dichloro-phenyl)-5-piperazin-1-yl-N^7-(4-trifluoromethyl-phenyl)-thiazolo[5,4-d]pyrimidine-2,7-diamine] | 5950 nM | 5140 nM
26 | Cc1nc(Nc2ccc(N(C)S(C)(=O)=O)cc2)c2nc(Nc3c(C)cccc3C)sc2n1 [Example 164, N-{4-[2-(2,6-Dimethyl-phenylamino)-5-methyl-thiazolo[5,4-d]pyrimidin-7-ylamino]-phenyl}-N-methyl-methanesulfonamide] | 6510 nM | 626 nM
27 | Cc1ccc(Nc2ncnc3sc(Nc4c(C)cccc4C)nc23)cc1C [Example 165, N^2-(2,6-Dimethyl-phenyl)-N^7-(3,4-dimethyl-phenyl)-thiazolo[5,4-d]pyrimidine-2,7-diamine] | > 6670 nM | > 6670 nM
28 | Cc1nc(Nc2cccnc2)c2nc(Nc3c(Cl)cccc3Cl)sc2n1 [Example 166, N^2-(2,6-Dichloro-phenyl)-5-methyl-N^7-pyridin-3-yl-thiazolo[5,4-d]pyrimidine-2,7-diamine] | > 6670 nM | > 6670 nM
29 | Cc1cccc(C)c1Nc1nc2c(Nc3ccc(C(F)(F)F)cc3Cl)ncnc2s1 [Example 167, N^7-(2-Chloro-4-trifluoromethyl-phenyl)-N^2-(2,6-dimethyl-phenyl)-thiazolo[5,4-d]pyrimidine-2,7-diamine] | > 6670 nM | > 6670 nM
30 | COc1ccc(Nc2ncnc3sc(Nc4c(C)cccc4C)nc23)cc1C(F)(F)F [Example 168, N^2-(2,6-Dimethyl-phenyl)-N^7-(4-methoxy-3-trifluoromethyl-phenyl)-thiazolo[5,4-d]pyrimidine-2,7-diamine] | > 6670 nM | > 6670 nM
31 | Cc1cccc(C)c1Nc1nc2c(Nc3ccc(C(N)=O)cc3)ncnc2s1 [Example 169, 4-[2-(2,6-Dimethyl-phenylamino)-thiazolo[5,4-d]pyrimidin-7-ylamino]-benzamide] | > 20000 nM | 17300 nM
32 | Cc1nc(Nc2ccccc2)c2nc(Nc3c(Cl)cccc3Cl)sc2n1 [Example 170, N^2-(2,6-Dichloro-phenyl)-5-methyl-N^7-phenyl-thiazolo[5,4-d]pyrimidine-2,7-diamine] | > 20000 nM | > 20000 nM
